Where two headings read alike, the source gives them in different places. Starred links: 1 amine or outer side, 2 acyl side, 3 side chain; linkers in the order of their positions; H or OH if unused. Positions of bridges follow the written chain, without caps; N, C: chain ends. Non-standard residues stand in square brackets, D forms with d. Residues, ends and D or L forms follow the SMILES beside them. *: point of attachment. NMePhe(3-Cl) = CN[C@@H](Cc1cccc(Cl)c1)C(=O)O; NMeF = CN[C@@H](Cc1ccccc1)C(=O)O; NMeI = CC[C@H](C)[C@H](NC)C(=O)O; NMeβAla = CN(CCC(=O)[*:2])[*:1]; NMeL = CN[C@@H](CC(C)C)C(=O)O; NMeV = CN[C@H](C(=O)O)C(C)C; NMeA = CN[C@@H](C)C(=O)O; Piperidide = C1CCN(*)CC1; dNMeA = CN[C@H](C)C(=O)O; β3hA = C[C@H](N)CC(=O)O; Sar = CNCC(=O)O; tBu = CC(C)(C)*
Legend:
[1] = PAMPA (parallel artificial membrane permeability assay); type: in vitro ADME; conditions: PAMPA
Outline: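 Artificial membrane was 10% (w/v) egg lecithin plus 0.5% (w/v) cholesterol in dodecane on a PVDF filter. A 10 mM DMSO stock was added at 0.5% (v/v) to donor buffer (50 mM MOPSO, pH 6.5, 5.0% glycocholic acid). After 18 h at 37 °C, LC/MS or LC/UV gave donor and acceptor levels for Pe.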

[2] = Metabolic stability in human hepatic microsome; type: in vitro ADME; conditions: microsomes
[3] = membrane permeation rate (Pe), 50 mM MOPSO buffer pH 6.5 with 5.0% glycocholic acid, 37° C., 18 hours, read-out: iPAMPA Pe
[4] = pH 7.4, human hepatic microsome, NADPH(+), read-out: CL NADPH(+)

Structure (SMILES) | Papp at 18 hours, 50 µM [1, 3] | microsomal CLint at 1 uM [2, 4] | Papp at 18 hours, 50 µM ([1]; pH 6.5) | microsomal CLint at 1 uM ([2]; human, pH 7.4, CL NADPH(+))
CC(C)C[C@H]1C(=O)N[C@@H](COC(C)(C)C)C(=O)N(C)[C@@H](Cc2ccccc2)C(=O)N(C)[C@@H](CC(C)C)C(=O)N[C@H](C(=O)N2CCCCC2)CC(=O)N(C)CCC(=O)N[C@@H]([C@@H](C)O)C(=O)N1C [DP-746] ([NMeβAla]T[NMeL]S(tBu)[NMeF][NMeL]D-Piperidide; lactam N-7) | 470 nm/s | 318 µL/min/mg |  | 
CC(C)C[C@H]1C(=O)N[C@@H]([C@@H](C)O)C(=O)N[C@@H](COC(C)(C)C)C(=O)N[C@H](C(=O)N2CCCCC2)CC(=O)N(C)CCC(=O)N(C)[C@@H](Cc2ccccc2)C(=O)N(C)[C@@H](CC(C)C)C(=O)N1C [DP-747] ([NMeβAla][NMeF][NMeL][NMeL]TS(tBu)D-Piperidide; lactam N-7) | 200 nm/s | 248 µL/min/mg |  | 
CC(C)C[C@H]1C(=O)N[C@@H](COC(C)(C)C)C(=O)N[C@@H]([C@@H](C)O)C(=O)N(C)[C@@H](Cc2ccccc2)C(=O)N(C)[C@@H](CC(C)C)C(=O)N[C@H](C(=O)N2CCCCC2)CC(=O)N[C@@H](C(C)C)C(=O)N1C [DP-748] (V[NMeL]S(tBu)T[NMeF][NMeL]D-Piperidide; lactam N-7) | 450 nm/s | 341 µL/min/mg |  | 
CC(C)C[C@H]1C(=O)N[C@@H]([C@@H](C)O)C(=O)N(C)[C@@H](Cc2ccccc2)C(=O)N[C@@H](COC(C)(C)C)C(=O)N[C@H](C(=O)N2CCCCC2)CC(=O)N[C@@H](C(C)C)C(=O)N(C)CC(=O)N1C [DP-749] (V[Sar][NMeL]T[NMeF]S(tBu)D-Piperidide; lactam N-7) | 170 nm/s | 56 µL/min/mg |  | 
CC(C)C[C@H]1C(=O)N[C@H](C(=O)N2CCCCC2)CC(=O)N(C)CCC(=O)N[C@@H]([C@@H](C)O)C(=O)N(C)CC(=O)N[C@@H](COC(C)(C)C)C(=O)N(C)[C@@H](Cc2ccccc2)C(=O)N1C [DP-750] ([NMeβAla]T[Sar]S(tBu)[NMeF][NMeL]D-Piperidide; lactam N-7) | 130 nm/s | 49 µL/min/mg |  | 
CC(C)C[C@@H]1NC(=O)[C@H](Cc2ccccc2)N(C)C(=O)[C@H](Cc2ccccc2)N(C)C(=O)[C@H]([C@@H](C)O)NC(=O)CN(C)C(=O)[C@H](C)NC(=O)C[C@@H](C(=O)N2CCCCC2)NC1=O [DP-751] (A[Sar]T[NMeF][NMeF]LD-Piperidide; lactam N-7) | 180 nm/s | 156 µL/min/mg |  | 
CC(C)C[C@@H]1NC(=O)[C@H]([C@@H](C)O)NC(=O)[C@@H]2CCCN2C(=O)[C@H](Cc2ccccc2)NC(=O)[C@H](COC(C)(C)C)NC(=O)[C@H](CC(C)C)N(C)C(=O)[C@H](Cc2ccccc2)NC(=O)[C@@H](C)N(C)C(=O)C[C@H](C)NC(=O)CNC(=O)[C@H](C)N(C)C(=O)[C@H](C)N(C)C1=O [DP-752] (cyclo(F[NMeL]S(tBu)FPTL[NMeA][NMeA]G[β3hA][dNMeA])) |  |  | 62 nm/s | 33 µL/min/mg
CC(C)C[C@@H]1NC(=O)[C@H](C)N(C)C(=O)[C@H]([C@@H](C)O)NC(=O)[C@H](Cc2ccccc2)N(C)C(=O)CNC(=O)[C@H](C(C)C)N(C)C(=O)[C@H](C(C)C)NC(=O)[C@H](C)N(C)C(=O)[C@H](Cc2ccccc2)NC(=O)[C@H](C)N(C)C(=O)[C@@H](C)N(C)C(=O)C[C@H](C)NC1=O [DP-753] (cyclo(F[NMeA]V[NMeV]G[NMeF]T[NMeA]L[β3hA][dNMeA][NMeA])) | 100 nm/s | 35 µL/min/mg |  | 
CC[C@H](C)[C@H]1C(=O)NCC(=O)N[C@@H](C)CC(=O)N(C)[C@H](C)C(=O)N[C@@H](Cc2ccccc2)C(=O)N(C)[C@@H](CC(C)C)C(=O)N[C@@H](COC(C)(C)C)C(=O)N[C@@H](Cc2ccccc2)C(=O)N2CCC[C@H]2C(=O)N[C@@H]([C@@H](C)O)C(=O)N[C@@H](CC(C)C)C(=O)N(C)[C@@H](C)C(=O)N1C [DP-754] (cyclo(F[NMeL]S(tBu)FPTL[NMeA][NMeI]G[β3hA][dNMeA])) |  |  | 320 nm/s | 41 µL/min/mg
CC[C@H](C)[C@H]1C(=O)NCC(=O)N(C)[C@@H](Cc2ccccc2)C(=O)N[C@@H]([C@@H](C)O)C(=O)N(C)[C@@H](C)C(=O)N[C@@H](CC(C)C)C(=O)N[C@@H](C)CC(=O)N(C)[C@H](C)C(=O)N(C)[C@@H](C)C(=O)N[C@@H](Cc2ccccc2)C(=O)N(C)[C@@H](CC(C)C)C(=O)N[C@@H](C(C)C)C(=O)N1C [DP-755] (cyclo(F[NMeL]V[NMeI]G[NMeF]T[NMeA]L[β3hA][dNMeA][NMeA])) | 360 nm/s | 144 µL/min/mg |  | 
CC[C@H](C)[C@H]1C(=O)N[C@@H](C)C(=O)N(C)[C@@H](CC(C)C)C(=O)N[C@@H](COC(C)(C)C)C(=O)N(C)[C@@H](CC(C)C)C(=O)N[C@@H](C)CC(=O)N(C)CCC(=O)N[C@@H](Cc2ccccc2)C(=O)N(C)[C@@H](Cc2ccccc2)C(=O)N(C)[C@@H](CC(C)C)C(=O)N[C@@H]([C@@H](C)O)C(=O)N(C)[C@@H](C)C(=O)N1C [DP-756] (cyclo(A[NMeL]S(tBu)[NMeL][β3hA][NMeβAla]F[NMeF][NMeL]T[NMeA][NMeI])) |  |  | 300 nm/s | 65 µL/min/mg
CC[C@H](C)[C@H]1C(=O)NCC(=O)N(C)[C@@H](Cc2ccccc2)C(=O)N[C@@H]([C@@H](C)O)C(=O)N(C)[C@@H](CC(C)C)C(=O)N[C@@H](CC(C)C)C(=O)N[C@@H](C)CC(=O)N(C)[C@H](C)C(=O)N(C)[C@@H](CC(C)C)C(=O)N[C@@H](Cc2ccccc2)C(=O)N(C)[C@@H](CC(C)C)C(=O)N[C@@H](C(C)C)C(=O)N1C [DP-757] (cyclo(F[NMeL]V[NMeI]G[NMeF]T[NMeL]L[β3hA][dNMeA][NMeL])) |  |  | 330 nm/s | 124 µL/min/mg
CC[C@H](C)[C@H]1C(=O)N[C@@H](CC(C)C)C(=O)N(C)[C@@H](CC(C)C)C(=O)N[C@@H](COC(C)(C)C)C(=O)N(C)[C@@H](CC(C)C)C(=O)N[C@@H](C)CC(=O)N(C)CCC(=O)N[C@@H](Cc2ccccc2)C(=O)N(C)[C@@H](Cc2ccccc2)C(=O)N(C)[C@@H](CC(C)C)C(=O)N[C@@H]([C@@H](C)O)C(=O)N(C)[C@@H](C)C(=O)N1C [DP-758] (cyclo(F[NMeF][NMeL]T[NMeA][NMeI]L[NMeL]S(tBu)[NMeL][β3hA][NMeβAla])) |  |  | 240 nm/s | 59 µL/min/mg
CC[C@H](C)[C@H]1C(=O)N(C)[C@@H](C)C(=O)N(C)[C@@H](CC(C)C)C(=O)N[C@@H](COC(C)(C)C)C(=O)N(C)[C@@H](CC(C)C)C(=O)N[C@@H](C)CC(=O)N(C)[C@@H](C)C(=O)N(C)[C@@H](Cc2ccccc2)C(=O)N[C@@H](C)C(=O)N(C)[C@@H](CC(C)C)C(=O)N[C@@H]([C@@H](C)O)C(=O)N[C@@H](Cc2ccccc2)C(=O)N1C [DP-759] (cyclo(A[NMeL]TF[NMeI][NMeA][NMeL]S(tBu)[NMeL][β3hA][NMeA][NMeF])) |  |  | 270 nm/s | 144 µL/min/mg
CC[C@H](C)[C@H]1C(=O)N[C@@H](C)C(=O)N(C)[C@@H](CC(C)C)C(=O)N[C@@H]([C@@H](C)O)C(=O)N[C@@H](Cc2ccccc2)C(=O)N(C)[C@@H](Cc2ccccc2)C(=O)N(C)[C@@H](CC(C)C)C(=O)N[C@@H](COC(C)(C)C)C(=O)N(C)[C@@H](CC(C)C)C(=O)N(C)[C@@H](C)C(=O)N[C@@H](C)CC(=O)N[C@H](C(C)C)C(=O)N1C [DP-760] (cyclo(A[NMeL]TF[NMeF][NMeL]S(tBu)[NMeL][NMeA][β3hA][dV][NMeI])) |  |  | 280 nm/s | 194 µL/min/mg
CC[C@H](C)[C@H]1C(=O)N(C)[C@@H](C)C(=O)N(C)[C@@H](CC(C)C)C(=O)N[C@@H](COC(C)(C)C)C(=O)N(C)[C@@H](CC(C)C)C(=O)N[C@@H](C)CC(=O)N(C)[C@@H](C)C(=O)N(C)[C@@H](Cc2ccccc2)C(=O)N[C@@H](CC(C)C)C(=O)N(C)[C@@H](CC(C)C)C(=O)N[C@@H]([C@@H](C)O)C(=O)N[C@@H](Cc2ccccc2)C(=O)N1C [DP-761] (cyclo(F[NMeI][NMeA][NMeL]S(tBu)[NMeL][β3hA][NMeA][NMeF]L[NMeL]T)) |  |  | 92 nm/s | 118 µL/min/mg
CC[C@H](C)[C@H]1C(=O)NCC(=O)N(C)[C@@H](Cc2cccc(Cl)c2)C(=O)N[C@@H]([C@@H](C)O)C(=O)N(C)[C@@H](CC(C)C)C(=O)N[C@@H](CC(C)C)C(=O)N[C@@H](C)CC(=O)N(C)[C@H](C)C(=O)N(C)[C@@H](CC(C)C)C(=O)N[C@@H](Cc2ccccc2)C(=O)N(C)[C@@H](CC(C)C)C(=O)N[C@@H](C(C)C)C(=O)N1C [DP-762] (cyclo(F[NMeL]V[NMeI]G[NMePhe(3-Cl)]T[NMeL]L[β3hA][dNMeA][NMeL])) |  |  | 130 nm/s | 81 µL/min/mg
CC(C)C[C@H]1C(=O)N(C)[C@@H](C)C(=O)N[C@@H](C)C(=O)N[C@@H](C)CC(=O)N(C)CCC(=O)N(C)[C@@H](Cc2ccccc2)C(=O)N(C)[C@@H](C)C(=O)N[C@@H]([C@@H](C)O)C(=O)N(C)[C@@H](C)C(=O)N[C@@H](Cc2ccccc2)C(=O)N(C)[C@@H](C(C)C)C(=O)N1C [DP-763] (cyclo(A[β3hA][NMeβAla][NMeF][NMeA]T[NMeA]F[NMeV][NMeL][NMeA])) |  |  | 25 nm/s | 15 µL/min/mg
